# Assay results as given in paper PMC12574689, “Synthesis of novel SRPK1-targeting hybrid compounds incorporating antimetabolites for cancer therapy” (RSC Medicinal Chemistry, 2025).
# What was measured:
# [1] = Chemostability in pH 5.2 and 7.4 buffers and DMEM (LC-ESI-MS); assay type: physicochemical; conditions: 37 °C
# Method: (§1) The stability of SRPK1-targeting conjugates geo15 and geo140 was assessed at pH 5.2 and 7.4, as well as in cell culture medium (DMEM) and human plasma. All experiments were conducted at 37 °C, with samples analysed by LC-ESI-MS at specific time points. […] The half-lives of the conjugates ranged from several minutes to several hours, is discussed below.
# (§2) Chemical stability experiments were conducted using LC-MS Method 4, except for the
# (§3) pH stability studies of compound geo15, which were performed using LC-MS Method
# (§4) 3. Representative chromatograms are provided for each experiment. geo15:
# (§5) Figure S16. Chemical stability assay LC chromatograms for geo15.
# (§6) Figure S17. Chemical stability assay LC chromatograms for geo140.
# [2] = tested on: Caco2; experiment: MTT viability assay, Caco2; assay type: cell-based; conditions: Homo sapiens, Caco-2, 48 h treatment, mean of three independent experiments
# Method: (§7) To evaluate the cytotoxic effects of the hybrid compounds geo15 and geo140, we performed MTT assays on HeLa, K562, A549, HepG2, HT-29 and Caco2 cancer cell lines, as well as primary intestinal subepithelial myofibroblasts (SEMFs).
# (§8) HeLa, K562, HT-29, Caco-2, HepG2 and A549 cancer cell lines were obtained from the American Type Culture Collection (ATCC). All cell lines were cultured at 37 °C with 5% CO2. HeLa, Caco-2, HepG2 and A549 cells were maintained in Dulbecco's modified Eagle medium (DMEM, PAN Biotech) supplemented with 10% FBS and antibiotics/antimycotics, while K562 cells were maintained in RPMI and HT-29 cells in McCoy's 5a medium (Biosera) with the same supplements.
# (§9) All cells were seeded in 96-well plates (Corning, New York, USA) at density of 10^4 cells per well, except HeLa that were seeded at destiny of 2 × 10^3. After 24 hours, the cells were treated with increasing concentrations of the inhibitory compounds for 48 hours. Cytotoxic activity of parent and conjugate compounds was assessed by 3-(4,5-dimethylthiazol-2-yl)-2,5-diphenyltetrazolium bromide (MTT) assay, according to manufacturer's instructions. In brief, 100 μl of growth medium containing 0.5 mg ml^−1 MTT (Sigma-Aldrich, Darmstadt, Germany) were added to each well of a 96-well plate and incubated at 37 °C and 5% CO2 for 2 hours until the formation of visible intracellular purple crystals. Then, MTT-supplemented growth medium was discarded and 100 μl dimethyl sulfoxide (Sigma-Aldrich, Darmstadt, Germany) were added per well for solubilization of dye. Absorbance was then measured on a microplate reader (Diareader EL 800; Dialab, Wr. Neudorf, Austria) at 570 nm with a reference wavelength at 660 nm.
# [3] = tested on: HeLa; experiment: MTT viability assay, HeLa; assay type: cell-based; conditions: Homo sapiens, 48 h treatment, mean of three independent experiments
# Method: as §7, §8, §9
# [4] = Stability in human plasma (LC-ESI-MS); assay type: in vitro ADME; conditions: 37 °C
# Method: as §1, §2, §3, §4, §5, §6
# [5] = tested on: HT-29; experiment: MTT viability assay, HT-29; assay type: cell-based; conditions: Homo sapiens; HT-29, MTT, 48 h treatment, mean of three independent experiments
# Method: as §7, §8, §9
# [6] = tested on: HepG2; experiment: MTT viability assay, HepG2; assay type: cell-based; conditions: Homo sapiens, 48 h treatment, mean of three independent experiments
# Method: as §7, §8, §9
# [7] = tested on: K562; experiment: MTT viability assay, K562; assay type: cell-based; conditions: Homo sapiens, 48 h treatment, mean of three independent experiments
# Method: as §7, §8, §9
# [8] = tested on: primary intestinal subepithelial myofibroblasts (SEMFs); experiment: MTT viability assay, primary SEMFs; assay type: cell-based; conditions: Homo sapiens, 48 h treatment, mean of three independent experiments
# Excerpt: as §7
# Intestinal myofibroblast isolation: primary intestinal subepithelial myofibroblasts were isolated from freshly collected intestinal mucosa biopsies as previously described,[28] from healthy individuals undergoing endoscopy for reasons of surveillance, after obtaining written and informed consent. Briefly, 4–6 pieces of intestinal tissue were collected in ice-cold Hank's Balanced Salt Solution (HBSS; Biosera, Nuaille, France) containing Ca^2+/Mg^2+ supplemented with P/S/A/G: penicillin (100 U ml^−1), streptomycin (100 μg ml^−1), amphotericin (2.5 μg ml^−1) and gentamycin (50 μg ml^−1), followed by 15 minute washes with HBSS with and without Ca^2+/Mg^2+ to remove possible contaminants. Next tissue was de-epithelialized by a 15 minute incubation in HBSS without Ca^2+/Mg^2+ containing 1 mM dithiothreitol (DTT, Sigma-Aldrich, Darmstadt, Germany) followed by 3× 30 minute washes in HBSS supplemented with 1 mM ethylenediaminetetraacetic acid (EDTA, Sigma-Aldrich, Darmstadt, Germany) at 37 °C. Tissue was cultured in RPMI 1640 (PAN Biotech, Aidenbach, Germany) supplemented with 10% fetal bovine serum (FBS; Biosera, Nuaille, France) and P/S/A/G for as long as 30 days at 37 °C and 5% CO2. After colonies of myofibroblasts reached 30% confluency, cells were detached and consequently cultured in 75 cm^2 flasks in Dulbecco's modified Eagle medium (DMEM, 4.5 g l^−1 glucose; PAN Biotech, Aidenbach, Germany) with 10% fetal bovine serum and P/S/A.
# as §9
# [9] = tested on: A549; experiment: MTT viability assay, A549; assay type: cell-based; conditions: Homo sapiens, 48 h treatment, mean of three independent experiments
# Method: as §7, §8, §9
# [10] = tested on: HeLa cells; experiment: Inverted phase-contrast microscopy of treated cells; assay type: cell-based; conditions: 10 μM, phase-contrast microscope
# Method: A similar morphology of geo140-treated cells was also observed using an inverted phase-contrast microscope.
# Fig. 7 Microscopic view of control HeLa cells and treated with 10 μM geo140, taken at 10× or 40× magnification as indicated, using an inverted phase-contrast microscope.
# [11] = tested on: SRPK1 in HeLa cells; experiment: Immunofluorescence of SRPK1 subcellular localization; assay type: cell-based
# Method: In a following step the effect of geo140 was tested on the subcellular distribution of SRPK1 in HeLa cells. To address this issue, a series of immunofluorescence experiments was performed to assess the effect of geo140, relative to its parent compounds, JH-VII-139-1 and 5-FU on SRPK1 localization.
# Fig. 6 Fluorescent patterns of SRPK1 in HeLa cells treated with JH-VII-139-1, 5-FU, and geo140 (for the indicated concentrations and time periods). SRPK1 was detected using an anti-SRPK1 monoclonal antibody (Alexa488-green fluorescence) while nuclei were stained with PI (red fluorescence). Scale bar: 10 μm.
# HeLa cells (3 × 10^4 cells per well) were seeded on glass coverslips in 24-well plates. After 24 hours, cells were treated with the indicated concentrations of inhibitors for 24 or 48 hours. Following incubation, samples were fixed with 4% paraformaldehyde in PBS for 20 minutes at room temperature. Paraformaldehyde was quenched with 100 mM Tris-HCl (pH 7.5), and cells were permeabilized with 0.2% Triton X-100 in PBS for 10 minutes. Blocking was performed with 0.5% fish skin gelatin in PBS. Cells were then probed with a primary antibody (anti-SRPK1 monoclonal, 1 : 100 dilution, BD Biosciences, San Jose, CA, USA) and a secondary antibody (Alexa488-conjugated goat anti-mouse, 1 : 400 dilution, Molecular Probes, Eugene, OR, USA), followed by DNA staining with propidium iodide, as previously described.[25] Coverslips were mounted with mounting medium (0.01% p-phenylenediamine and 50% glycerol in PBS) and visualized using a Nikon confocal microscope with EZ-C1 3.20 software.
# [12] = target: T1, GST-SRPK2 (Homo sapiens, UniProt P78362); experiment: In vitro kinase assay, GST-SRPK2; assay type: biochemical; conditions: substrate GST-LBRNt(62–92), 25 μM ATP
# T1 construct: made in house; host or cells: bacteria (pGEX-2T vector)
# Method: (§10) The inhibitory activity of geo140 and JH-VII-139-1 against SRPK1 and SRPK2 was assessed using in vitro kinase assays (Fig. 5). […] The IC50 values summarized in Panel E indicate that both JH-VII-139-1 and the hybrid compound geo140 act as effective inhibitors of SRPK-mediated phosphorylation, with however, differential selectivity between SRPK1 and SRPK2.
# (§11) Fig. 5 Phosphorylation of 1 μg GST-LBRNt(62–92) by 0.5 μg GST-SRPK1 or 0.5 μg GST-SRPK2 in the presence of increasing concentrations of geo140 (A and B, respectively) or in the presence of increasing concentrations of JH-VII-139-1 (C and D, respectively). Panel C was taken from a previous publication of the authors.[2] The samples were analyzed by SDS-PAGE on 12% gels, stained with Coomassie blue and autoradiographed. Only the relevant part of the autorad corresponding to the phosphorylated substrate is shown. E. IC50 values of geo140 and JH-VII-139-1 against GST-SRPK1 and GST-SRPK2.
# (§12) Human SRPK1, SRPK2, and a turkey LBR N-terminal fragment (amino acids 62–92; LBRNt(62–92)) were expressed as GST-fusion proteins in bacteria using the pGEX-2T vector (Amersham Biosciences) as previously described.[15] […] Phosphorylated GST-LBRNt(62–92) was detected by autoradiography (Super RX film, Fujifilm). Incorporated radioactivity was quantified by scintillation counting of the excised SDS-PAGE gel bands.
# [13] = target: T2, GST-SRPK1 (Homo sapiens, UniProt Q96SB4); experiment: In vitro kinase assay, GST-SRPK1; assay type: biochemical; conditions: substrate GST-LBRNt(62–92), 25 μM ATP
# T2 construct: made in house; host or cells: bacteria (pGEX-2T vector)
# Method: as §10, §11, §12
# T2 sequence (Q96SB4 whole entry): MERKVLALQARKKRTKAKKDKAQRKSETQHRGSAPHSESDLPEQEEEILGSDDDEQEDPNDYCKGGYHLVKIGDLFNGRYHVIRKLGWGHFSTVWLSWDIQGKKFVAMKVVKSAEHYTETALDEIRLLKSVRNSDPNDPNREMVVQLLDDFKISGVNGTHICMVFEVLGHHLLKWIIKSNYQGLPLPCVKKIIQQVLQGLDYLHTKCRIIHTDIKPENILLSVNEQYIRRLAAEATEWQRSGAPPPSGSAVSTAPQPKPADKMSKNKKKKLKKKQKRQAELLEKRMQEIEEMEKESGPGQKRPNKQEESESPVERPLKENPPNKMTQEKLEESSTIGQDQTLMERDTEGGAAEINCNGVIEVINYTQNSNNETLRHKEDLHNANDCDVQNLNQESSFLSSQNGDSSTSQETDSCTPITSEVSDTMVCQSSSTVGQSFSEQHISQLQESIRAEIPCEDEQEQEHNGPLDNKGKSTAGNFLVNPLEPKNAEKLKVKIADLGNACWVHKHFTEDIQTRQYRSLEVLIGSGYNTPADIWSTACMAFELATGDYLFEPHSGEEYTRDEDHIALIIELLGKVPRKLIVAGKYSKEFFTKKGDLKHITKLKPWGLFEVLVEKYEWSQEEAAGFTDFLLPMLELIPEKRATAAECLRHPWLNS
# T1 sequence (P78362 whole entry): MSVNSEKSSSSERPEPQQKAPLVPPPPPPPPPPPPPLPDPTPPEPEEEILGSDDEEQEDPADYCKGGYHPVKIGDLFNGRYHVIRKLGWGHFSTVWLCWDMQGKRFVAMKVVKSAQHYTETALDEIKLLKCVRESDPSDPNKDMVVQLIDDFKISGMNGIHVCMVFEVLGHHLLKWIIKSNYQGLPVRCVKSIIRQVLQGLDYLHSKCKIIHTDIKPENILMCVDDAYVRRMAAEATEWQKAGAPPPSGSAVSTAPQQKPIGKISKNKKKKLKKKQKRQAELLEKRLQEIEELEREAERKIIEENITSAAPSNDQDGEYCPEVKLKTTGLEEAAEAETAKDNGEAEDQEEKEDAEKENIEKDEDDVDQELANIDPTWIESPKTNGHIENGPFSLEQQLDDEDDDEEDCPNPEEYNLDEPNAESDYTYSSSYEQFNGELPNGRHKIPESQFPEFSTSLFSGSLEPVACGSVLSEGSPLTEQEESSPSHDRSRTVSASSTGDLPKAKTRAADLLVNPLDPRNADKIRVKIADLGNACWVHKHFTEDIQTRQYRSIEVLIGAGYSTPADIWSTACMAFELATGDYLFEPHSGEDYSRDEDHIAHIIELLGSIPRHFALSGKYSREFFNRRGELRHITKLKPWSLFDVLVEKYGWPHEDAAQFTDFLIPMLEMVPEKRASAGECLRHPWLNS
half-life ([1]; pH 7.4 buffer),EC50 [2],EC50 [3],EC50 [5],EC50 [6],EC50 [7],EC50 [9],SMILES,EC50 [8],also measured
> 48 h,> 50 µM,33.1 µM,38.4 µM,> 50 µM,> 50 µM,> 50 µM,COc1cc(/C=C(\C#N)C(=O)Nc2nnc(C(F)(F)F)s2)ccc1OCc1ccc(NC(=O)CNC(=O)OC[C@H]2O[C@@H](n3ccc(N)nc3=O)C(F)(F)[C@@H]2O)cc1 [geo15],> 50 µM,"half-life ([1]; DMEM cell culture medium, DMEM): > 48 h; detection of retro-Knoevenagel reaction product 21 ([1]; DMEM): not observed; concentration of the conjugate remaining ([1]; during the 24 hour period, overall stability profile (all media)): above 50%; detection of retro-Knoevenagel reaction product 21 ([1]; pH buffer media): small percentage; release of SRPIN803 via the 1,6-elimination mechanism ([1]; stability media): no release of SRPIN803; detection of retro-Knoevenagel reaction product 21 [4]: not observed; half-life [4]: > 48 h"
–,> 50 µM,6.7 µM,28.7 µM,31.4 µM,> 50 µM,> 50 µM,"Nc1ccn([C@@H]2O[C@H](CO)[C@@H](O)C2(F)F)c(=O)n1 [Gemcitabine, gemcitabine, reference compound]",> 50 µM,–
> 48 h,31.2 µM,11.7 µM,19.3 µM,27.1 µM,13.7 µM,> 50 µM,"CCc1cc2c(cc1-c1ccn(C(=O)NCCOCCOCCNC(=O)Cn3c(=O)[nH]cc(F)c3=O)n1)C(C)(C)c1[nH]c3cc(C#N)ccc3c1C2=O [geo140, (JH-VII-139-1)–(5-FU) conjugate]",21.5 µM,"reduction in initial concentration ([1]; DMEM, after 24 hours): 10–20%; half-life ([1]; pH 5.2 buffer): > 48 h; mitotic cells (round shape, distinct chromosomal structures) [10]: significant increase in mitotic cells; reduction in initial concentration ([4]; after 24 hours): 10–20%; SRPK1 distribution in interphase cells [11]: SRPK1 retained a cytoplasmic distribution similar to that seen in untreated controls; number of mitotic cells ([11]; immunofluorescence): significant increase in the number of mitotic cells; IC50 [12]: 7.9 µM; IC50 [13]: 0.0221 µM"
–,> 50 µM,25.7 µM,3.62 µM,> 50 µM,> 50 µM,15.2 µM,"O=c1[nH]cc(F)c(=O)[nH]1 [5-FU, 5-fluorouracil, reference compound]",> 50 µM,"effect on SRPK1 subcellular localization ([11]; 20 μM, 24 h): more diffuse SRPK1 staining pattern, with some nuclear translocation of the kinase; effect on SRPK1 subcellular localization ([11]; 48 h): almost complete nuclear translocation of SRPK1"
